Reference: article PMC7400108, “Squalamine and Aminosterol Mimics Inhibit the Peptidoglycan Glycosyltransferase Activity of PBP1b” (Antibiotics, 2020)
“And” between values parts separate entries of the source, which are not always exact repeats. Equal values may be shown once. “Also recorded” adds a separate entry of the source. Read-outs that look alike come from different tables or passages of the source.

How the values were obtained:
[1] = Fluorescence anisotropy direct binding of compounds to the probe in the absence of the protein; conditions: NBD-lipid II 0.33 µM, no protein
Experimental: (§1) FA assay was performed as previously described. Briefly, fixed concentrations of NBD-lipid II (0.33 µM) and PBP1b (~1 µM) in the 25 mM Tris–HCl pH 7.5, NaCl 0.1 M, CHAPS 0.14% w/v, were mixed with serial dilutions of the compounds in 384-well plates. Measurement were performed using an Infinite F Plex (Tecan, Männedorf, Switzerland) microplate reader equipped with polarization filters with excitation and emission wavelengths at 485 and 535 nm respectively. All the experiments were performed in triplicates. For direct binding evaluation of the compounds with the probe, the experiments were performed in the same condition in the absence of the protein. FA values in millianisotropy units (mA) were plotted as a function of compound concentrations in µM as previously described.

PBP1b = target: T1, PBP1b (Escherichia coli, UniProt P02919); experiment: Fluorescence anisotropy competition assay, displacement of NBD-lipid II probe from PBP1b; type: binding; conditions: NBD-lipid II 0.33 µM, PBP1b ~1 µM, serial dilutions of compound
T1 construct: PBP1bγ(M46-N844) was purified as previously described; made in house
Experimental: as §1

E. coli PBP1b [2] = target: T2, E. coli PBP1b (Escherichia coli, UniProt P02919); experiment: GTase inhibition assay: residual activity and IC50 of PBP1b (radioactive lipid II endpoint TLC assay, dansyl-lipid II continuous fluorescence assay); type: biochemical; conditions: for remaining activity at 800 µM: read-out: RA % (0.8 mM), residual GTase activity of PBP1b, compound 0.8 mM (800 µM); for remaining activity at 800 µM / RA % (0.4 mM), residual GTase activity of PBP1b / RA % (0.8 mM), residual GTase activity of PBP1b: compared to nontreated control; for RA % (0.4 mM), residual GTase activity of PBP1b: compound 0.4 mM (400 µM); for RA % (0.8 mM), residual GTase activity of PBP1b: compound 0.8 mM (800 µM)
T2 construct: PBP1bγ(M46-N844) was purified as previously described; made in house
Experimental: The continuous fluorescence GTase activity assay of PBP1b was performed using dansyl lipid II as substrate as described.
The end-point assay, based on radiolabeled lipid II ([^14C]lipid II), was performed in 30 µL in the same conditions as the fluorescence assay using 4 µM [^14C]lipid II (0.06 µCi/nmol) instead of the fluorescent substrate and by omitting the muramidase. The reaction was incubated 15 min at 30 °C, stopped by heating at 80 °C for 10min and the products were separated by thin-layer chromatography (TLC) on silica gel plates in 2-propanol–ammonium hydroxide (25%)–H2O (6:3:1; v/v/v).
The GTase inhibition assay was carried out by measuring the residual activity (RA) of E. coli PBP1b in the presence of 400 and 800 μM compounds. All the assays were repeated at least three times. The IC50 values were determined for the active compounds using variable concentrations of inhibitor (0−1000 μM) by fitting the data using GraphPad Prism 6.0 software.

E. coli PBP1b [3] = target: T2, E. coli PBP1b; experiment: as above; type: biochemical; conditions: up to 5 mM (1-5 mM), below CMC
S. aureus = tested on: S. aureus; parameters: method as in PMID 31063379; conditions: cited from earlier work
E. coli = tested on: E. coli; parameters: method as in PMID 31063379; conditions: cited from earlier work
[4] = mean of three experiments ± s.d.
[5] = variable inhibitor concentrations 0-1000 µM, mean of three experiments ± s.d., read-out: IC50, GTase activity of PBP1b

T1 sequence (P02919 46-844): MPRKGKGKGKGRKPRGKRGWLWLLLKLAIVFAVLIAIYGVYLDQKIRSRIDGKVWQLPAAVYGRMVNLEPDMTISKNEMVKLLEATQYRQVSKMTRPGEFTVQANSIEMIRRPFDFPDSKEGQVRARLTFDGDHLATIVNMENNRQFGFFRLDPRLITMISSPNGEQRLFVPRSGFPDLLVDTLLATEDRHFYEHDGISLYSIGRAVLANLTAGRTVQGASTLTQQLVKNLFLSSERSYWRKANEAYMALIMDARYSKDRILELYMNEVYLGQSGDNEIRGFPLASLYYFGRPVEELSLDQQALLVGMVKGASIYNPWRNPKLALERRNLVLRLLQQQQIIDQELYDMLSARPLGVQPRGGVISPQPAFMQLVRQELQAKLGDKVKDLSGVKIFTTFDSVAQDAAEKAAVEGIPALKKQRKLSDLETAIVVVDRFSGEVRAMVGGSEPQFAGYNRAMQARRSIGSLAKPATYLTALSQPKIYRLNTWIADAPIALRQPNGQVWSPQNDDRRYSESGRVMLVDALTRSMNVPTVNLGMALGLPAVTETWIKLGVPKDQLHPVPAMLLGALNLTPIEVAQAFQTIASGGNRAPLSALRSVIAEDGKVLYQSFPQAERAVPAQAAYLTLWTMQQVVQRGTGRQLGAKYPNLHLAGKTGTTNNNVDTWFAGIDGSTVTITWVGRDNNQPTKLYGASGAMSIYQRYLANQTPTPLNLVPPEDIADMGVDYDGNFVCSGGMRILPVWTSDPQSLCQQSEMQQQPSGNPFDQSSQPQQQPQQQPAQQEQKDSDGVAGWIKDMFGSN
T2 sequence (P02919 46-844): as above

| Compound | Inhibition of GTase activity of PBP1b (in words) (E. coli PBP1b [2]; concentration not given) | remaining activity at 800 µM (E. coli PBP1b [2]; [4]) | RA % (0.4 mM), residual GTase activity of PBP1b (E. coli PBP1b [2]; [4]) | IC50 (E. coli PBP1b [2]; [5]) | other results |
| --- | --- | --- | --- | --- | --- |
| C[C@]12CCC3c4ccc(O)cc4CCC3C1CC[C@@H]2NCCCCN (stereo partly drawn) [Compound 15, (13S,17S)-17-((4-aminobutyl)amino)-13-methyl-7,8,9,11,12,13,14,15,16,17-decahydro-6H-cyclopenta[a]phenanthren-3-ol] | absence of activity | 105 ± 3% | – | – | Direct interaction between fluorescent lipid II and compound (FA) [1]: no significant interaction; Competition with lipid II for binding to PBP1b (change of FA of the probe) (PBP1b): no effect; also recorded: does not affect the FA |
| C[C@H](NCCCCN)[C@H]1CCC2C3CCC4=C[C@@H](NCCCCN)CC[C@]4(C)C3CC[C@@]21C (stereo partly drawn) [Compound 13] | absence of activity | 100% | – | – | Inhibition of GTase activity of PBP1b (in words) (E. coli PBP1b [2]; 0.8 mM compound, radioactive lipid II, endpoint TLC assay): inactive |
| N1,N1’-((3S,7R,10R,13R,17R)-10,13-dimethyl-17-((R)-5-methylhexan-2-yl)-tetradecahydro-1H-cyclopenta[a]phenanthrene-3,7-diyl)bis(pentane-1,5-diamine) [Compound 7] | – | – | 12.5 ± 4.4% | 229 ± 17 µM | RA % (0.8 mM), residual GTase activity of PBP1b (E. coli PBP1b [2]; [4]): 1.5 ± 0.8% |
| CC(=O)[C@H]1CC[C@H]2[C@@H]3CCC4=CC(=O)CC[C@]4(C)[C@H]3CC[C@]12C [Compound 12, progesterone, reference compound] | do not inhibit | 98 ± 1% | – | – | – |
| CC(C)CCC[C@@H](C)[C@H]1CCC2C3C[C@@H](NCCCCN)C4C[C@@H](O)CC[C@]4(C)C3CC[C@@]21C (stereo partly drawn) [Compound 5, 6β-(1,4-diaminobutane)-cholestan-3β-ol] | – | 3 ± 1% | 16 ± 1.4% | 221 ± 26 µM | – |
| CC(C)CCC[C@@H](C)[C@H]1CCC2C3C[C@@H](NCCCNCCCCNCCCN)C4C[C@@H](O)CC[C@]4(C)C3CC[C@@]21C (stereo partly drawn) [Compound 6, 6β-(spermine)-cholestan-3β-ol] | – | 0.8 ± 0.4% | 3.9 ± 0.1% | – | Direct interaction between fluorescent lipid II and compound (FA) [1]: no significant interaction; Competition with lipid II for binding to PBP1b (change of FA of the probe) (PBP1b): able to compete; also recorded: decrease of the FA; IC50 (E. coli PBP1b [2]): 111 ± 6 µM |
| CC(C)CCC[C@@H](C)[C@H]1CCC2C3C(CC[C@@]21C)[C@@]1(C)CC[C@H](O)CC1=C[C@@H]3NCCCNCCCCNCCCN (stereo partly drawn) [Compound 3] | – | 8.5 ± 3.1% | 16 ± 2% | 220 ± 10 µM | – |
| C[C@H](CCC(=O)NCCC[N+](C)(C)CCCS(=O)(=O)[O-])[C@H]1CCC2C3C(C[C@H](O)[C@@]21C)[C@@]1(C)CC[C@H](O)CC1C[C@H]3O (stereo partly drawn) [CHAPS] | – | – | – | – | Inhibition of PBP1b GTase activity (in words) (E. coli PBP1b [3]): no inhibition |
| CC(C)[C@@H](CC[C@@H](C)[C@H]1CC[C@H]2[C@@H]3[C@H](O)C[C@H]4C[C@@H](NCCCNCCCCN)CC[C@]4(C)[C@H]3CC[C@]12C)OS(=O)(=O)O [Squalamine (1), Squalamine] | – | 1.1 ± 0.6% | 6 ± 2% | 291 ± 26 µM | Direct interaction between fluorescent lipid II and compound (FA) [1]: no significant interaction; MIC (S. aureus): ~ 3 µg/mL; MIC (E. coli): ~ 3 µg/mL; Competition with lipid II for binding to PBP1b (change of FA of the probe) (PBP1b): able to compete; also recorded: decrease of the FA |
| CC(C)CCCC(C)C1CCC2C3C(NCCCCN)C=C4CC(O)CCC4(C)C3CCC12C (stereo not drawn) [Compound 2] | – | – | 1.2 ± 0.3% | 114 ± 6 µM | RA % (0.8 mM), residual GTase activity of PBP1b (E. coli PBP1b [2]; [4]): 0.3 ± 0.1% |
| CC(C)CCCC(C)C1CCC2C3C(NCCCCN)C=C4CC(O)CCC4(C)C3CCC12C (stereo not drawn) [Compound 9] | almost inactive | – | – | – | RA % (0.8 mM), residual GTase activity of PBP1b (E. coli PBP1b [2]; [4]): 98% and 98 ± 1% |
| CC(C)CCC[C@@H](C)[C@H]1CCC2C3C(CC[C@@]21C)[C@@]1(C)CC[C@H](O)CC1C[C@@H]3NCCCN (stereo partly drawn) [Compound 4] | – | 4 ± 1% | 39 ± 2% | 303 ± 15 µM | – |
